# Patent publication US20210122763A1, “OGA INHIBITOR COMPOUNDS” (Janssen Pharmaceutica NV, priority 2018, published 2021)
# Key:
# [1] = molecular target: T1, recombinant human Meningioma Expressed Antigen 5 (MGEA5), also referred to as O-GlcNAcase (OGA) (Homo sapiens, UniProt O60502); test: OGA biochemical assay (inhibition of FM-GlcNAc hydrolysis, fluorescence); conditions: for Emax: read-out: Enzymatic Emax (%); for IC50: read-out: Enzymatic hOGA, pIC50 (converted)
# T1 construct: Full length OGA enzyme was purchased at OriGene (cat #TP322411); purchased OriGene TP322411
# T1 sequence (O60502 1-916): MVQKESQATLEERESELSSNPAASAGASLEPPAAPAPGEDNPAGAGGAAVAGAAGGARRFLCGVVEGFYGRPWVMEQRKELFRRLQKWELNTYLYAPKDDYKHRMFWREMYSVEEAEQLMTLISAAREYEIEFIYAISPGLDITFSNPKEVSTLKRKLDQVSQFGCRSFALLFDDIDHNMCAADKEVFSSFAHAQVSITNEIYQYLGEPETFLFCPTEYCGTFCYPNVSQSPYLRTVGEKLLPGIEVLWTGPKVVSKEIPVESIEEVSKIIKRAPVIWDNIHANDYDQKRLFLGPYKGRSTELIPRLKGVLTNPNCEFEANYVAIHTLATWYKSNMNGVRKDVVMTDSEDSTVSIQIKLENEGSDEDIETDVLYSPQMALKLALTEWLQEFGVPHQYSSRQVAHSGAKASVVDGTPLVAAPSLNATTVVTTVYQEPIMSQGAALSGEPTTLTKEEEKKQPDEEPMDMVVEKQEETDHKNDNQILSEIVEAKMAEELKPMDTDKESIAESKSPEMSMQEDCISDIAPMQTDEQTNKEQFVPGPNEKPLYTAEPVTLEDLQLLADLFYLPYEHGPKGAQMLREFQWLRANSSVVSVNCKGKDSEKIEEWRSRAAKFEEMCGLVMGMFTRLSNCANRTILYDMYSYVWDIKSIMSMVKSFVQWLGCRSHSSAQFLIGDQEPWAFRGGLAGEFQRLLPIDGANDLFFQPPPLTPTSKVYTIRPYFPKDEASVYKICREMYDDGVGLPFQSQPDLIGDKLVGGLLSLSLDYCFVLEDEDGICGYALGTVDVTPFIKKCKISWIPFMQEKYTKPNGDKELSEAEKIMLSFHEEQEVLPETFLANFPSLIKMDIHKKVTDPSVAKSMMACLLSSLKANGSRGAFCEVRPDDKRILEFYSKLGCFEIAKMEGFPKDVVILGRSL
# How it was run: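 Full-length OGA at 2 nM was pre-incubated 60 min at room temperature with compound, then FM-GlcNAc at 100 uM final was added in citrate/phosphate buffer pH 7.2 with 0.005% Tween-20. After 6 h at room temperature, carbonate pH 11.0 stopped the reaction. Fluorescence read at 485/538 nm; IC50 and Hill coefficient from curve fit against no-inhibitor and saturating-standard controls.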
# OGA = molecular target: T2, OGA (Homo sapiens, UniProt O60502); test: OGA cellular assay (ICC detection of O-GlcNAcylated proteins in HEK293 cells inducible for P301L mutant human Tau); assay type: cell-based; conditions: 6 hours incubation; for Emax: HEK293, HEK293 cells inducible for P301L mutant human Tau, maximum = Thiamet G 200 uM; for EC50: HEK293 cells inducible for P301L mutant human Tau, read-out: Cellular hOGA, pEC50 (converted)
# T2 construct: HEK293 cells inducible for P301L mutant human Tau (isoform 2N4R) were established at Janssen; endogenous in cells; host or cells: HEK293 cells inducible for P301L mutant human Tau (2N4R)
# T2 sequence (O60502 1-916): T1 sequence (O60502 1-916)
# How it was run: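 HEK293 cells with inducible P301L 2N4R Tau, seeded in low-glucose medium, were exposed to compounds for 6 hours (0.2% DMSO), then PFA-fixed and stained with CTD110.6. Imaging intensity at 488 nm measured O-GlcNAcylation, with Hoechst nuclei counts for toxicity. IC50s came from non-linear regression, with Thiamet G at 200 uM as maximum inhibition.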
Compound,melting point [°C],Emax [1] [%],IC50 [1] [nM],Emax (OGA) [%],EC50 (OGA) [nM]
Cc1ncc(OC2CCN(C(C)c3ccc4c(n3)OCCC4)CC2)cn1.Cl (stereo not drawn) [Compound 139],208.1,95,200,31,> 1000
CC(c1ccc2c(n1)OCCO2)N1CCC(Oc2ccc(C#N)nc2)CC1 (stereo not drawn) [Compound 150],133,95,79.4,57,398
Cc1ncc(OC2CCN(C(C)c3nc4c(cc3F)OCCO4)CC2)cn1.Cl (stereo not drawn) [Compound 91],134.6,105,15.8,86,200
Cc1cncc(OC2CCN(C(C)c3ccc4c(n3)OCCO4)CC2)n1 (stereo not drawn) [Compound 76],91.71,99,79.4,36,> 1000
Cc1ncc(NC2CCN(C(C)c3nc4c(cc3F)OCCO4)CC2)cn1 (stereo not drawn) [Compound 127],209.9,98,20,81,135
"Cc1ncc(COC2CCN([C@@H](C)c3nc4c(cc3F)OCCO4)CC2)cn1 (single isomer, unassigned) [Compound 137]",70.1,96,398,25,> 1000
Cc1ncc(OC2CCN(C(C)c3ccc4c(n3)OCCO4)CC2)cn1.Cl (stereo not drawn) [Compound 90],72.8,100,100,48,> 1000
"Cc1ncc(COC2CCN(C(C)c3nc4c(cc3F)OCCO4)CC2)cn1 (single isomer, unassigned) [Compound 136]",64.4,95,12.6,81,50.1
Cc1cnc(OC2CCN(C(C)c3ccc4c(n3)OCCO4)CC2)cn1 (stereo not drawn) [Compound 141],119.6,97,200,51,794
Cc1nc(OC2CCN(C(C)c3nc4c(cc3F)OCCO4)CC2)ccc1C#N (stereo not drawn) [Compound 112],153.41,96,10,87,158
Cc1cc(CC2CCN(C(C)c3ccc4c(n3)OCCO4)CC2)cc(C)n1 (stereo not drawn) [Compound 140],144.6,98,398,64,251
"Cc1cc(OC2CCN([C@H](C)c3nc4c(cc3F)CCO4)CC2)cc(C)n1 (single isomer, unassigned) [Compound 143]",105.3,99,5.01,100,17.4
Cc1ncc(OC2CCN(C(C)c3ccc4c(c3)OCO4)CC2)cn1.Cl (stereo not drawn) [Compound 30],213.2,100,794,15,> 1000
CNC(=O)c1ccc(OC2CCN(C(C)c3ccc4c(n3)OCCO4)CC2)cn1 (stereo not drawn) [Compound 122],94.5,100,79.4,48,794
CCOc1cc(OC2CCN(C(C)c3ccc4c(n3)OCCO4)CC2)cc(C)n1.Cl (stereo not drawn) [Compound 142],119.6,104,25.1,73,158
Cc1ncc(COC2CCN(C(C)c3nc4c(cc3F)OCCO4)CC2)cn1 (stereo not drawn) [Compound 135],132.9,97,31.6,97,79.4
Cc1ccc(OC2CCN(C(C)c3ccc4c(n3)OCCO4)CC2)nn1.Cl (stereo not drawn) [Compound 151],168,98,200,30,> 1000
Cc1ccc(NC2CCN(C(C)c3nc4c(cc3F)OCCO4)CC2)cn1 (stereo not drawn) [Compound 126],138,99,25.1,73,63.1
Cc1cc(OC2CCN(C(C)c3nc4c(cc3F)OCCO4)CC2)ncc1C#N (stereo not drawn) [Compound 113],161.44,96,15.8,83,126
Cc1ccc(OC2CCN(C(C)c3nc4c(cc3F)OCCO4)CC2)nc1C (stereo not drawn) [Compound 156],140.6,102,20,67,200
Cc1ccc(OC2CCN(C(C)c3ccc4c(c3)OCO4)CC2)cn1.Cl (stereo not drawn) [Compound 31],278.4,96,794,21,> 1000
